# Reference: patent publication US11203577B2, “Sulfonyl-structure-containing triazinone derivatives, their preparation methods and their uses in insect killing and/or bacterium killing” (Nankai University, priority 2017, dated 2021)
# Like-named read-outs stand apart in the source and are kept apart here.
# Columns and labels:
# [1] = system: Rice sheath blight; assay: In vitro fungicidal activity, PDA colony diameter; assay type: cell-based; settings: read-out: Fungicidal activity (%) Rice sheath blight
# [2] = system: Watermelon anthracnose; assay: In vitro fungicidal activity, PDA colony diameter; assay type: cell-based; settings: read-out: Fungicidal activity (%) Watermelon anthracnose
# [3] = system: Potato late blight; assay: microbe, parasite or virus in culture; assay type: cell-based; settings: Phytophthora infestans, 96 h, read-out: Fungicidal activity (%) Potato late blight
# [4] = system: Wheat head blight; assay: whole plant or invertebrate; assay type: cell-based; settings: Triticum aestivum, read-out: Fungicidal activity (%) Wheat head blight
# [5] = system: Wheat sheath blight; assay: In vitro fungicidal activity, PDA colony diameter; assay type: cell-based; settings: read-out: Fungicidal activity (%) Wheat sheath blight
# [6] = system: Corn southern leaf blight; assay: In vitro fungicidal activity, PDA colony diameter; assay type: cell-based; settings: read-out: Fungicidal activity (%) Corn southern leaf blight
# [7] = system: Cercospora brown spot of peanut; assay: In vitro fungicidal activity, PDA colony diameter; assay type: cell-based; settings: 96 h, read-out: Fungicidal activity (%) Cercospora brown spot of peanut
# [8] = system: bean aphides (Aphis laburni Kaltenbach); assay: Test of insecticidal activity against aphides (leaf immersion, checked after 96 h); settings: for mortality at 2.5 mg/kg / mortality at 5 mg/kg / mortality at 10 mg/kg / mortality at 100 mg/kg / mortality at 600 mg/kg: Aphis, 96 h, read-out: Mortalities (%) against aphides
# [9] = system: Rice bakanae disease; assay: In vitro fungicidal activity, PDA colony diameter; assay type: cell-based; settings: read-out: Fungicidal activity (%) Rice bakanae disease
# [10] = system: Maize borers; assay: Test of insecticidal activity against maize borers (leaf immersion); settings: read-out: Mortalities (%) Maize borers
# [11] = system: Armyworms; assay: Test of insecticidal activity against armyworms (leaf immersion); settings: 600 mg/kg, 3-4 days
# [12] = system: Cotton bollworms; assay: Test of insecticidal activity against cotton bollworms (pesticide mixed into feedstuff); settings: read-out: Mortalities (%) Cotton bollworms
# Procedure: Method of testing against cotton bollworms: the pesticide is mixed into the feedstuff, i.e., 3 mL prepared solution is added into about 27 g freshly prepared feedstuff; thus, required concentration is obtained by diluting by 10 times.
# [13] = system: Apple ring rot; assay: In vitro fungicidal activity, PDA colony diameter; assay type: cell-based; settings: inhibition of colony diameter
# In short: (§1)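 Percent growth inhibition derived from colony diameter versus compound-free PDA control after 4 days' culture. Plates contained compound at 50 mg/kg; inoculum was a plug taken from the periphery of a 7-day PDA culture.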
# [14] = system: Capsicum phytophthora blight; assay: In vitro fungicidal activity, PDA colony diameter; assay type: cell-based; settings: 96 h
# In short: as §1
# [15] = system: mosquito larvae (Culer pipiens pallens); assay: Test of insecticidal activity against mosquito larvae (checked after 24 h); settings: 24 h, read-out: Mortalities (%) against mosquito larvae
# [16] = system: Cucumber fusarium wilt; assay: In vitro fungicidal activity, PDA colony diameter; assay type: cell-based; settings: 96 h, read-out: Fungicidal activity (%) Cucumber fusarium wilt
# [17] = system: Sclerotinia rot of colza; assay: In vitro fungicidal activity, PDA colony diameter; assay type: cell-based; settings: 96 h, read-out: Fungicidal activity (%) Sclerotinia rot of colza
# [18] = system: Tomato early blight; assay: In vitro fungicidal activity, PDA colony diameter; assay type: cell-based, Alternaria solani; settings: read-out: Fungicidal activity (%) Tomato early blight
# [19] = 50 mg/kg, inhibition of colony diameter
Compound,"inhibition at 50 mg/kg [1, 19]","inhibition at 50 mg/kg [2, 19]",inhibition of growth at 50 mg/kg [3],inhibition at 50 mg/kg [4],"inhibition at 50 mg/kg [5, 19]","inhibition at 50 mg/kg [6, 19]","inhibition of growth at 50 mg/kg [7, 19]",mortality at 10 mg/kg [8],mortality at 100 mg/kg [8],mortality at 600 mg/kg [8],"inhibition at 50 mg/kg [9, 19]",mortality at 600 mg/kg [10],Mortalities (%) Armyworms [11],mortality at 600 mg/kg [12],inhibition at 50 mg/kg [13],inhibition of growth at 50 mg/kg [14],mortality at 10 mg/kg [15],"inhibition of growth at 50 mg/kg [16, 19]","inhibition of growth at 50 mg/kg [17, 19]","inhibition at 50 mg/kg [18, 19]",further results
"COc1ccc(S(=O)(=O)NN2CC(C)=NNC2=O)cc1 [Ia-14, 4-methoxy-N-(6-methyl-3-oxo-2,3-dihydro-1,2,4-triazin-4(5H)-yl)-benzenesulfonamide]",11.6%,26.2%,3.1%,16.2%,21.7%,9.3%,12%,100%,100%,100%,10.3%,0%,0%,0%,33.8%,13.9%,100%,8.8%,15.8%,13.4%,mortality at 2.5 mg/kg [8]: 35%; mortality at 5 mg/kg [8]: 100%; mortality at 2 mg/kg [15]: 10%; mortality at 5 mg/kg [15]: 95%
"CC1=NNC(=O)N(NS(=O)(=O)c2cn(C)c(C)n2)C1 [Ia-32, 1,2-dimethyl-N-(6-methyl-3-oxo-2,3-dihydro-1,2,4-triazin-4(5H)-yl)-1H-imidazolyl-4-sulfonamide]",10.5%,,18.8%,12.5%,30.9%,7.7%,26.1%,30%,100%,100%,,0%,5%,0%,43.1%,9.4%,20%,8.8%,15.8%,16.1%,inhibition at 50 mg/kg [2]: 18.8%; inhibition at 50 mg/kg [9]: 18.8%
"CC1=NNC(=O)N(NS(=O)(=O)C2CCCCC2)C1 [Ia-6, N-(6-methyl-3-oxo-2,3-dihydro-1,2,4-triazin-4(5H)-yl)-cyclohexylsulfonamide]",11.6%,12.5%,3.1%,10.9%,30.9%,7.7%,13%,,45%,85%,12.5%,40%,50%,30%,39.2%,18.8%,70%,20.6%,31.6%,12.9%,
"CC1=NNC(=O)N(N(S(=O)(=O)c2cccnc2)S(=O)(=O)c2cccnc2)C1 [Ib-9, N-(6-methyl-3-oxo-2,3-dihydro-1,2,4-triazin-4(5H)-yl)-N-(pyrid-3-yl-sulfonyl)pyridyl-3-sulfonamide]",26.8%,3.1%,14.3%,21.2%,15.1%,5.6%,19.2%,20%,80%,95%,0%,10%,15%,5%,21.4%,11.5%,10%,7.7%,12.5%,25%,
"CC1=NNC(=O)N(NS(=O)(=O)c2cccc(C)c2)C1 [Ia-11, 3-methyl-N-(6-methyl-3-oxo-2,3-dihydro-1,2,4-triazin-4(5H)-yl)-benzenesulfonamide]",16.3%,36.1%,9.3%,2.7%,14.3%,18.7%,8%,100%,100%,100%,10.3%,15%,20%,20%,6.8%,27.8%,100%,8.8%,26.3%,1.5%,mortality at 2.5 mg/kg [8]: 15%; mortality at 5 mg/kg [8]: 80%; mortality at 2 mg/kg [15]: 20%; mortality at 5 mg/kg [15]: 100%
"CC1=NNC(=O)N(NS(=O)(=O)c2ccc(C(C)(C)C)cc2)C1 [Ia-15, 4-tert-butyl-N-(6-methyl-3-oxo-2,3-dihydro-1,2,4-triazin-4(5H)-yl)-benzenesulfonamide]",17.4%,14.7%,9.7%,13.5%,9.3%,9.3%,12%,100%,100%,100%,24.1%,45%,60%,40%,16.2%,5.6%,100%,8.8%,15.8%,20.9%,mortality at 2.5 mg/kg [8]: 10%; mortality at 5 mg/kg [8]: 85%; mortality at 2 mg/kg [15]: 40%; mortality at 5 mg/kg [15]: 100%
"CC1=NNC(=O)N(N(S(=O)(=O)c2ccc([N+](=O)[O-])cc2)S(=O)(=O)c2ccc([N+](=O)[O-])cc2)C1 [Ib-7, N-(6-methyl-3-oxo-2,3-dihydro-1,2,4-triazin-4(5H)-yl)-4-nitro-N-(4-nitrobenzenesulfonyl)-benzenesulfonamide]",,,25.9%,23.3%,,,,25%,85%,100%,,15%,20%,40%,0%,36.7%,60%,,,,inhibition at 50 mg/kg [1]: 27%; inhibition at 50 mg/kg [2]: 20.8%; inhibition at 50 mg/kg [5]: 59.1%; inhibition at 50 mg/kg [6]: 12.5%; inhibition of growth at 50 mg/kg [7]: 21.1%; inhibition at 50 mg/kg [9]: 44.4%; inhibition of growth at 50 mg/kg [16]: 5%; inhibition of growth at 50 mg/kg [17]: 30%; inhibition at 50 mg/kg [18]: 23.8%
"CC1=NNC(=O)N(NS(=O)(=O)c2ccccc2F)C1 [Ia-16, 2-fluoro-N-(6-methyl-3-oxo-2,3-dihydro-1,2,4-triazin-4(5H)-yl)-benzenesulfonamide]",11.6%,8.2%,3.1%,10.8%,14.3%,0%,8%,90%,100%,100%,27.6%,15%,10%,10%,17.6%,13.9%,100%,2.9%,15.8%,13.4%,insecticidal activity against aphides compared with pymetrozine ([8]; 5 mg/kg): equivalent to the insecticidal activity of pymetrozine; mortality at 5 mg/kg [8]: 30%; mortality at 2 mg/kg [15]: 30%; mortality at 5 mg/kg [15]: 100%
